Laboratory results: patent US10881110B2, “Herbicidal compositions comprising isoxazolo[5,4-b]pyridines” (BASF SE, priority 2014, dated 2021)
Several values for one entry are separate records, joined by “and”; a condition that tells them apart may be missing. Equal entries are not always repeated. Where two headings read alike, the source gives them in different places.

What was measured:
Assay in all cases: greenhouse post-emergence herbicidal test
VIOAR = type: in vivo, Viola arvensis; design: key to herbicidal activity against VIOAR found / herbicidal activity against VIOLA found: rating on a scale from 0 to 100; settings: post emergence; for pest or weed control at 62.5 g/ha / pest or weed control at 125 g/ha: Viola arvensis, post-emergence, read-out: herbicidal activity against VIOAR found
Method in brief: (§1)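 Herbicidal activity scored on a 0 (no damage) to 100 (plants destroyed) scale, usually 20 days after water-based spraying of 1–15 cm plants grown in loamy sand at 10-25 °C or 20-35 °C depending on species. Components were applied from 10% emulsion concentrates; Colby's E=X+Y−(X·Y/100) gives the additive expectation.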

GERPU = type: in vivo, Geranium pusillum; settings: application rate a.i.: I.1 31.25 g/ha
Experimental: (§2) The culture containers used were plastic pots containing medium loamy sand with approximately 4.6% of humus and 69.9% sand as substrate. The seeds of the test plants were sown separately for each species.
(§3) For the post-emergence treatment, the test plants were grown to a plant height of from 1 to 15 cm, depending on the plant habit, and only then treated with the active compounds which had been suspended or emulsified in water. To this end, the test plants were either sown directly, and grown in the same containers, or they were first grown separately as seedlings and transplanted into the test containers a few days prior to treatment.
(§4) Depending on the species, the plants were kept at 10-25° C. and 20-35° C., respectively.
(§5) The test period extended over 1 to 3 weeks. During this time, the plants were tended and their response to the individual treatments was evaluated 20 days after treatment except mentioned otherwise.
(§6) Evaluation was carried out using a scale from 0 to 100. 100 means no emergence of the plants, or complete destruction of at least the above-ground parts, and 0 means no damage or normal course of growth.
(§7) The respective stated components A and B, and, if appropriate, C, were formulated as a 10% by weight strength emulsion concentrate and, with addition of the amount of solvent system, introduced into the spray liquor used for applying the active compound. In the examples, the solvent used was water.
(§8) In the examples below, using the method of S. R. Colby (1967) “Calculating synergistic and antagonistic responses of herbicide combinations”, Weeds 15, p. 22 ff., the value E, which is expected if the activity of the individual active compounds is only additive, was calculated. E=X+Y−(X·Y/100)

PHACA = type: in vivo
Experimental: as §2, §3, §4, §5, §6, §7, §8

LOLMU = type: in vivo, Lolium multiflorum
Experimental: as §2, §3, §4, §5, §6, §7, §8

POLPE = type: in vivo, Persicaria maculosa; design: key: scale 0 to 100
Method in brief: as §1

ABUTH = type: in vivo, Abutilon theophrast; settings: Abutilon theophrasti, post-emergence, 480 h, post emergence, read-out: herbicidal activity against ABUTH found
Method in brief: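 Herbicidal effect is rated visually from 0, no damage, to 100, complete kill, twenty days after treating plants of 1–15 cm height. Substrate is medium loamy sand with about 4.6% humus; holding temperature depends on species, either 10-25° C or 20-35° C.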

[1] = 6 days after treatment, g/ha a.i.: I.1 31.25, B.96 35, mixture 31.25+35
[2] = a.i. g/ha: I.1 31.25, B.67 125, 20 days after treatment
[3] = a.i. g/ha: I.1 62.5, B.67 125, 20 days after treatment

O=C(O)c1cc(C2CC2)nc2onc(C3CC3)c12 [I.1]
pest or weed control at 62.5 g/ha (VIOAR; I.1 alone 62.5 g/ha a.i.): 30% | pest or weed control at 62.5 g/ha (VIOAR; 62.5 g/ha a.i.): 0% | pest or weed control at 125 g/ha (VIOAR; 125 g/ha a.i.): 90% | pest or weed control at 62.5 g/ha (VIOAR; single active, 62.5 g/ha a.i.): 20% | pest or weed control at 125 g/ha (VIOAR; single active, 125 g/ha a.i.): 30% | herbicidal activity against VIOAR found (VIOAR; [1]): 0 | herbicidal activity against VIOAR found (VIOAR; 6 days after treatment, g/ha a.i.: I.1 31.25, B.96 70, mixture 31.25+70): 0 | herbicidal activity against VIOAR found (VIOAR; 6 days after treatment, g/ha a.i.: I.1 31.25, B.96 140, mixture 31.25+140): 0 | herbicidal activity against VIOAR found (VIOAR; 6 days after treatment, g/ha a.i.: I.1 31.25, naptalam 200, mixture 31.25+200): 0 | herbicidal activity against VIOAR found (VIOAR; 6 days after treatment, g/ha a.i.: I.1 62.5, B.96 35, mixture 62.5+35): 0 | herbicidal activity against VIOAR found (VIOAR; 6 days after treatment, g/ha a.i.: I.1 62.5, B.96 70, mixture 62.5+70): 0 | herbicidal activity against VIOAR found (VIOAR; 6 days after treatment, g/ha a.i.: I.1 62.5, B.96 140, mixture 62.5+140): 0 | herbicidal activity against VIOAR found (VIOAR; 6 days after treatment, g/ha a.i.: I.1 62.5, naptalam 100, mixture 62.5+100): 0 | herbicidal activity against VIOAR found (VIOAR; 6 days after treatment, g/ha a.i.: I.1 62.5, naptalam 200, mixture 62.5+200): 0 | herbicidal activity against VIOAR found (VIOAR; I.1 62.5 g/ha, B.89 12.5 g/ha a.i.): 25 | herbicidal activity against VIOAR found (VIOAR; application rate a.i.: I.1 31.25 g/ha, B.84 (paraquat-dichloride) 17.5 g/ha, alone or as mixture (composition 1.84)): 40 | herbicidal activity against VIOAR found (VIOAR; application rate a.i.: I.1 62.5 g/ha, B.100 (isoxaflutole) 12.5 g/ha, alone or as mixture (composition 1.100)): 30 | herbicidal activity against VIOAR found (VIOAR; application rate a.i.: I.1 62.5 g/ha, B.30 (imazamox) 3.75 g/ha, alone or as mixture (composition 1.030)): 0 | herbicidal activity against VIOAR found (VIOAR; application rate a.i.: I.1 62.5 g/ha, B.84 (paraquat-dichloride) 17.5 g/ha, alone or as mixture (composition 1.84)): 40 | herbicidal activity against VIOAR found (VIOAR; applied alone at 125 g/ha a.i.): 60 and 80 | herbicidal activity against VIOAR found (VIOAR; g/ha a.i.: I.1 62.5, B.52 2.5, mixture 62.5+2.5): 0 | herbicidal activity against VIOAR found (VIOAR; g/ha a.i.: I.1 62.5, B.63 0.5, mixture 62.5+0.5): 0 | herbicidal activity against VIOAR found (VIOAR; g/ha a.i.: I.1 125, B.52 2.5, mixture 125+2.5): 0 | herbicidal activity against VIOAR found (VIOAR; g/ha a.i.: I.1 125, B.52 5, mixture 125+5): 0 | herbicidal activity against VIOAR found (VIOAR; g/ha a.i.: I.1 125, B.63 1, mixture 125+1): 0 | herbicidal activity against VIOLA found (VIOAR; single active, 15.625 g/ha a.i.): 0 | herbicidal activity against VIOLA found (VIOAR; single active, 62.5 g/ha a.i.): 20 | herbicidal activity against VIOLA found (VIOAR; single active, 125 g/ha a.i.): 30 | herbicidal activity against GERPU, found (GERPU; B.139 (pyroxasulfone) 12.5 g/ha, alone or as mixture (composition 1.139)): 80 | herbicidal activity against GERPU, found (GERPU; B.139 (pyroxasulfone) 25 g/ha, alone or as mixture (composition 1.139)): 80 | herbicidal activity against GERPU, found (GERPU; B.87 (carfentrazone-ethyl) 1.75 g/ha, alone or as mixture (composition 1.87)): 80 | herbicidal activity against PHACA found (PHACA; [2]): 0% | herbicidal activity against PHACA found (PHACA; [3]): 35% | herbicidal activity against LOLMU found (LOLMU; a.i. g/ha: I.1 7.8, B.67 125, 20 days after treatment): 0% | herbicidal activity against LOLMU found (LOLMU; a.i. g/ha: I.1 15.6, B.67 125, 20 days after treatment): 0% | herbicidal activity against LOLMU found (LOLMU; [2]): 0% | herbicidal activity against LOLMU found (LOLMU; a.i. g/ha: I.1 62.5, B.67 62.5, 20 days after treatment): 40% | herbicidal activity against LOLMU found (LOLMU; [3]): 20% | herbicidal activity against LOLMU found (LOLMU; a.i. g/ha: I.1 62.5, B.77 75, 20 days after treatment): 20% | herbicidal activity against POLPE found (POLPE; 31.25 g/ha a.i.): 45 and 70 | herbicidal activity against POLPE found (POLPE; [1]): 10 | herbicidal activity against POLPE found (POLPE; application rate a.i.: I.1 31.25 g/ha, B.139 (pyroxasulfone) 12.5 g/ha, alone or as mixture (composition 1.139)): 30 | pest or weed control at 31.25 g/ha (ABUTH; I.1 alone 31.25 g/ha a.i.): 0% | pest or weed control at 62.5 g/ha (ABUTH; I.1 alone 62.5 g/ha a.i.): 65% | pest or weed control at 62.5 g/ha (ABUTH; 62.5 g/ha a.i.): 25%
